Measurements from ChEMBL document CHEMBL1201862, “PubChem BioAssay data set” (2004).
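Assay format: 96-well plates, 48-hour exposure. GI50: concentration for 50% inhibition of growth.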 Active and inactive are the calls of the source. Rule as the data show it: active = GI50 up to about 1.1 µM and inactive = higher.

Columns and labels:
Assay in all cases: growth of human tumour cells (NCI), 48 h
[1] = tested on: A498
[2] = tested on: ACHN
[3] = tested on: BT-549
[4] = tested on: CCRF-CEM
[5] = tested on: COLO 205
[6] = tested on: EKVX
[7] = tested on: HCT-116
[8] = tested on: HCT-15
[9] = tested on: Hs-578T
[10] = tested on: K562
[11] = tested on: MCF7
[12] = tested on: MDA-N
[13] = tested on: OVCAR-3
[14] = tested on: OVCAR-5
[15] = tested on: SF-268
[16] = tested on: SK-MEL-2
[17] = tested on: TK-10
[18] = tested on: U-251
[19] = tested on: HOP-92

SMILES | GI50 [1] | GI50 [2] | GI50 [3] | GI50 [4] | GI50 [5] | GI50 [6] | GI50 [7] | GI50 [8] [µM] | GI50 [9] | GI50 [10] | GI50 [11] | GI50 [12] | GI50 [13] | GI50 [14] | GI50 [15] | GI50 [16] | GI50 [17] | GI50 [18] | GI50 [19]
O=C(Nc1cccc2ccccc12)c1ccccc1 | > 100 µM (inactive) | > 100 µM (inactive) | > 100 µM (inactive) | 27.1 µM (inactive) | 97.7 µM (inactive) | > 100 µM (inactive) | > 100 µM (inactive) | 98.2 | > 100 µM (inactive) | 76.6 µM (inactive) | 8.89 µM (inactive) | 77.6 µM (inactive) | 11.8 µM (inactive) | > 100 µM (inactive) | > 100 µM (inactive) | 91.2 µM (inactive) | > 100 µM (inactive) | > 100 µM (inactive) | –
COC(=O)c1c(C)c2c(c(C)c1O)OC(=O)c1c(C)cc(O)c(C=O)c1O2 | – | > 100 µM (inactive) | > 100 µM (inactive) | > 100 µM (inactive) | > 100 µM (inactive) | > 100 µM (inactive) | > 100 µM (inactive) | > 100 | 12.5 µM (inactive) | > 100 µM (inactive) | > 100 µM (inactive) | > 100 µM (inactive) | > 100 µM (inactive) | > 100 µM (inactive) | > 100 µM (inactive) | – | > 100 µM (inactive) | > 100 µM (inactive) | > 100 µM (inactive)
CCc1ccc2c(c1)/C(=C1/Nc3ccccc3/C1=N/O)C(=O)N2 | 4.03 µM (inactive) | 3.84 µM (inactive) | 8 µM (inactive) | 3.21 µM (inactive) | 8.83 µM (inactive) | 5.19 µM (inactive) | 3.27 µM (inactive) | 3.53 | 4.57 µM (inactive) | 4.5 µM (inactive) | 1.66 µM (inactive) | 7.53 µM (inactive) | 3.4 µM (inactive) | 18.6 µM (inactive) | 8.22 µM (inactive) | 4.38 µM (inactive) | 11.5 µM (inactive) | 9.31 µM (inactive) | –
Cn1nc2ccc3nccc(N4CCN(CCO)CC4)c3c2n1 | > 100 µM (inactive) | > 100 µM (inactive) | > 100 µM (inactive) | 21.3 µM (inactive) | > 100 µM (inactive) | – | > 100 µM (inactive) | 4.02 | > 100 µM (inactive) | 58.6 µM (inactive) | > 100 µM (inactive) | > 100 µM (inactive) | > 100 µM (inactive) | > 100 µM (inactive) | > 100 µM (inactive) | > 100 µM (inactive) | > 100 µM (inactive) | > 100 µM (inactive) | –
CCCCNS(=O)(=O)c1n[nH]c(=O)[nH]c1=O | > 100 µM (inactive) | > 100 µM (inactive) | > 100 µM (inactive) | 14.1 µM (inactive) | > 100 µM (inactive) | > 100 µM (inactive) | > 100 µM (inactive) | > 100 | > 100 µM (inactive) | > 100 µM (inactive) | > 100 µM (inactive) | > 100 µM (inactive) | > 100 µM (inactive) | > 100 µM (inactive) | > 100 µM (inactive) | > 100 µM (inactive) | – | > 100 µM (inactive) | –
CC1OC(n2cc(F)c(=O)[nH]c2=O)C(O[Si](C)(C)C(C)(C)C)C1O[Si](C)(C)C(C)(C)C (stereo not drawn) | 14.2 µM (inactive) | 14 µM (inactive) | 13.4 µM (inactive) | 16.6 µM (inactive) | 14.4 µM (inactive) | 16.9 µM (inactive) | 13.9 µM (inactive) | 12.9 | 14.3 µM (inactive) | 15.4 µM (inactive) | 6.76 µM (inactive) | 15.5 µM (inactive) | 15 µM (inactive) | 15.2 µM (inactive) | 12 µM (inactive) | 16.3 µM (inactive) | 10.7 µM (inactive) | 13.9 µM (inactive) | –
Cc1cc(C#N)c[n+](C)c1 | > 100 µM (inactive) | > 100 µM (inactive) | > 100 µM (inactive) | > 100 µM (inactive) | > 100 µM (inactive) | > 100 µM (inactive) | > 100 µM (inactive) | > 100 | > 100 µM (inactive) | > 100 µM (inactive) | > 100 µM (inactive) | > 100 µM (inactive) | > 100 µM (inactive) | > 100 µM (inactive) | > 100 µM (inactive) | > 100 µM (inactive) | > 100 µM (inactive) | > 100 µM (inactive) | –
CCCCNc1nc(NC2OCC(OC(C)=O)C(OC(C)=O)C2OC(C)=O)c(N=O)c(=O)n1C (stereo not drawn) | > 10 µM (inactive) | > 10 µM (inactive) | > 10 µM (inactive) | > 10 µM (inactive) | > 10 µM (inactive) | > 10 µM (inactive) | > 10 µM (inactive) | > 10 | > 10 µM (inactive) | – | > 10 µM (inactive) | – | > 10 µM (inactive) | > 10 µM (inactive) | > 10 µM (inactive) | > 10 µM (inactive) | > 10 µM (inactive) | > 10 µM (inactive) | > 10 µM (inactive)
O=[N+]([O-])c1ccc2nc3ccccc3cc2c1 | 1.5 µM (inactive) | 3.04 µM (inactive) | 4.05 µM (inactive) | – | 3.56 µM (inactive) | 5.31 µM (inactive) | 1.65 µM (inactive) | 1.37 | 3.21 µM (inactive) | 0.0782 µM (active) | 2.39 µM (inactive) | – | 0.342 µM (active) | 2.48 µM (inactive) | 6.44 µM (inactive) | 4.73 µM (inactive) | 1.64 µM (inactive) | 2.69 µM (inactive) | 3.28 µM (inactive)
c1ccc2c(c1)OC(N1CCCC1)c1cnc(N3CCCC3)nc1-2 (stereo not drawn) | 26.5 µM (inactive) | 40.6 µM (inactive) | 21.2 µM (inactive) | 23.8 µM (inactive) | 31.3 µM (inactive) | 19.4 µM (inactive) | 39.2 µM (inactive) | 29.7 | 30.5 µM (inactive) | 34.3 µM (inactive) | 18.6 µM (inactive) | – | 22.9 µM (inactive) | 76 µM (inactive) | 29.4 µM (inactive) | – | 49.2 µM (inactive) | 45.9 µM (inactive) | 13.6 µM (inactive)
NC1=NC(=O)[C@H](Cc2c[nH]c3ccccc23)N1C(=O)OCc1ccccc1 | 61 µM (inactive) | > 100 µM (inactive) | 38.5 µM (inactive) | – | > 100 µM (inactive) | 45.3 µM (inactive) | 57.9 µM (inactive) | > 100 | 44.9 µM (inactive) | 30.8 µM (inactive) | 81.8 µM (inactive) | > 100 µM (inactive) | 59.7 µM (inactive) | > 100 µM (inactive) | 73.8 µM (inactive) | > 100 µM (inactive) | > 100 µM (inactive) | 69.7 µM (inactive) | –
CC(C)(Sc1cc(C(C)(C)C)c(O)c(C(C)(C)C)c1)Sc1cc(C(C)(C)C)c(O)c(C(C)(C)C)c1 [PROBUCOL] | > 100 µM (inactive) | > 100 µM (inactive) | > 100 µM (inactive) | > 100 µM (inactive) | > 100 µM (inactive) | 4.57 µM (inactive) | > 100 µM (inactive) | > 100 | > 100 µM (inactive) | 1.81 µM (inactive) | > 100 µM (inactive) | > 100 µM (inactive) | – | > 100 µM (inactive) | 52.8 µM (inactive) | > 100 µM (inactive) | > 100 µM (inactive) | > 100 µM (inactive) | –
